A short description of the data set: solvent given as SMILES.

For `c1ccc(-c2nc(-c3ccccc3)nc(-n3c4ccccc4c4cc(-n5c6ccccc6c6ccccc65)ccc43)n2)cc1`, for the setting “in C1CCOC1”, the absorption maximum was determined as 321.23 nm.

For the molecule `C(#Cc1ccccc1)c1ccccc1`, the absorption maximum worked out at 298 nm (in CO), 299 nm (in ClC(Cl)Cl) and 299 nm (in ClCCl). For `c1cc2ccc1-c1ccc(cc1)-c1ccc([se]1)-c1ccc(cc1)-c1ccc(cc1)-c1ccc([se]1)-c1ccc(cc1)-c1ccc(cc1)-c1ccc([se]1)-c1ccc(cc1)-c1ccc(cc1)-c1ccc-2[se]1`, the absorption maximum (in C1CCOC1) was 370 nm. For the molecule `Nc1nc2ccccc2[n+]([O-])n1`, the absorption maximum reads like this: (in CC#N) 407 nm; (in O) 415 nm. Take `c1ccc(-n2c(-c3ccc(N(c4ccc(-c5ccc(N(c6ccc(-c7nc8c9ccccc9c9ccccc9c8n7-c7ccccc7)cc6)c6ccc(-c7nc8c9ccccc9c9ccccc9c8n7-c7ccccc7)cc6)cc5)cc4)c4ccc(-c5nc6c7ccccc7c7ccccc7c6n5-c5ccccc5)cc4)cc3)nc3c4ccccc4c4ccccc4c32)cc1`: the absorption maximum (in ClCCl) is listed as 376 nm.

Turning to `COc1ccc2ccc3oc(=O)c(-c4ccccc4)nc3c2c1`, the absorption maximum (in c1ccccc1) is given as 404 nm. `C[C@]12SC(=O)C=C1c1nc(-c3ccc(O)cc3)[nH]c1C1=CC(=O)S[C@@]12C` yielded an absorption maximum (in CC#N) of 470 nm. For `CC(C)(C)c1ccc2oc3nc4oc5ccc(-n6c7ccccc7c7cc(-n8c9ccccc9c9ccccc98)ccc76)cc5c4cc3c2c1`, the absorption maximum (in ClC(Cl)Cl) was 348 nm. With `CC(C)(C)OC(=O)NC(Cc1ccccc1)C(=O)OCc1ccc2c3cccc4cccc(c5cccc1c52)c43` (centres undefined), the absorption maximum (in CCO) amounted to 440 nm. In turn, `N#Cc1nc(N(Cc2ccccc2)Cc2ccccc2)c(C#N)nc1N(Cc1ccccc1)Cc1ccccc1` gave an absorption maximum (in ClC(Cl)Cl) of 493 nm. Under “in CC#N”, `COc1ccc(-c2csc(/C(C#N)=C/c3ccc(Cl)cc3)n2)cc1` displayed an absorption maximum of 376 nm. In turn, `COc1c2ccccc2c(OC)c2c(C#Cc3ccccc3)c3cc4ccccc4cc3c(C#Cc3ccccc3)c12` gave an absorption maximum (in ClCCl) of 704 nm.

As for `CCCCCCCCN1c2ccc(C#Cc3cc(C(F)(F)F)cc(C(F)(F)F)c3)cc2Sc2cc(C=O)ccc21`, the absorption maximum (in C1CCOC1) is 382 nm; the absorption maximum (in CC#N) is given as 386 nm; the absorption maximum (in CCCCCC) is given as 372 nm; the absorption maximum (in CO) turned out to be 366 nm; the absorption maximum (in CS(C)=O) is 396 nm; the absorption maximum (in Cc1ccccc1) worked out at 381.01 nm. For the setting “in ClC(Cl)Cl”, this molecule yielded an absorption maximum of 386 nm. For the molecule `O=C1C2=C3c4ccsc4C=CN3C(=O)C2=C2c3ccsc3C=CN12`, the absorption maximum amounted to 575 nm (in CN(C)C=O) and 575 nm (in ClC(Cl)Cl). `COC(=O)CCC(NC(=O)CCNc1cccc2ccccc12)C(=O)OC` (centres undefined) yielded an absorption maximum (in CCO) of 330 nm.

Where the note is “in ClC(Cl)Cl”, `N#Cc1nc(N(Cc2ccccc2Cl)Cc2ccccc2Cl)c(C#N)nc1N(Cc1ccccc1Cl)Cc1ccccc1Cl` yielded an absorption maximum of 485 nm. Under “in C1CCOC1”, `O=P(c1c2ccccc2cc2ccccc12)(c1c2ccccc2cc2ccccc12)c1c2ccccc2cc2ccccc12` registered an absorption maximum of 411 nm. The molecule `c1ccc(-n2c3ccccc3c3cc(-c4cccc(-n5c6cccnc6c6c7sc8ccccc8c7ccc65)c4)ccc32)cc1` gave an absorption maximum (in ClCCl) of 365 nm. In the case of `Cc1ccc(C2=C3C=C(I)C(I)=[N+]3[B-](F)(F)n3c2cc(I)c3I)cc1`, the absorption maximum runs as follows: (in C1CCCCC1) 581 nm; (in CC#N) 571 nm; (in CCO) 577 nm; (in CCOC(C)=O) 573.5 nm; (in CO) 574.5 nm; (in OCC(F)(F)F) 569 nm. `c1ccc2c(c1)CCc1ccccc1N2c1c2ccccc2cc2ccccc12`: for the setting “in Cc1ccccc1”, the absorption maximum was 426 nm.

As to `CCOC(=O)CC[N+]1=c2cc3c(cc2CCC1)=Cc1c(c2ccc(N(C)C)cc2oc1=O)O3`, the absorption maximum by setting is: (in CC#N) 593 nm; (in CO) 591 nm; (in ClCCl) 606 nm; (in O) 587 nm. `CN(C)c1ccc(C2=[N+]3C(=Nc4c(-c5ccc(O)cc5)cc(-c5ccc(N(C)C)cc5)n4[B-]3(F)F)C(c3ccc(O)cc3)=C2)cc1`: the absorption maximum reads like this: (in C1CCOC1) 775 nm; (in CS(C)=O) 794 nm; (in Cc1ccccc1) 778 nm.

With `CC(C)(C)NC(=O)c1ccc(F)c2ccc3c4ccccc4c4ccccc4c3c12`, the absorption maximum (in ClCCl) is 334 nm. Still for that read-out and setting: to `COc1cc(C(=O)c2c(C)c3ccc4cccc5c6cccc7ccc2c(c76)c3c45)cc(OC)c1OC` belongs 391 nm.

`CCCCOc1ccc(-c2cc3c(o2)c(-c2ccc(OCCCC)cc2)c2n3[B-](F)(F)[N+]3=Cc4c(-c5ccc(OCCCC)cc5)c5oc(-c6ccc(OCCCC)cc6)cc5n4[B-](F)(F)[N+]3=C2)cc1`: the absorption maximum worked out at 619 nm (in C1CCOC1); 620 nm (in CN(C)C=O); 625 nm (in CS(C)=O); 626 nm (in Cc1ccccc1); 624 nm (in ClC(Cl)Cl); 622 nm (in ClCCl). Turning to `C(=C1c2ccccc2CCc2ccccc21)c1ccc(-c2cc(-c3ccc(C=C4c5ccccc5CCc5ccccc54)cc3)cc(-c3ccc(C=C4c5ccccc5CCc5ccccc54)cc3)c2)cc1`, the absorption maximum (in C1CCOC1) turned out to be 318 nm. With `N#Cc1c(N2CCCC2)cc(-c2ccccc2)c2c1-c1cccc3cccc-2c13`, the absorption maximum (in O) turned out to be 428 nm. Regarding `O=C([O-])c1ccccc1C1=c2cc3c4c(c2Oc2c1cc1c5c2CCCN5CCC1)CCC[N+]=4CCC3`, the absorption maximum is, setting by setting: (in CC#N) 577 nm; (in CCO) 564 nm; (in CN(C)C=O) 580 nm; (in O) 575 nm.

`COc1ccc(C2=C3C=C(/C=C/C(=O)OC(C)(C)C)C=[N+]3[B-](F)(F)n3cccc32)cc1`: the absorption maximum (in ClCCl) came to 536 nm.

`CCCCCCCCCCCCN1C(=O)c2c(c3ccc4cc(-c5ccc(F)cc5)c(OC)cc4c3c3c2ccc2cc(-c4ccc(F)cc4)c(OC)cc23)C1=O` yielded an absorption maximum (in ClCCl) of 431 nm. Regarding `CC(C)(C(=O)c1ccc(N2c3ccccc3Oc3ccccc32)cc1)C(=O)c1ccc(N2c3ccccc3Oc3ccccc32)cc1`, the absorption maximum (in Cc1ccccc1) was 416 nm. `O=c1[nH]c(=O)c2scc([C@H]3C[C@H](O)[C@@H](CO)O3)c2[nH]1`: the absorption maximum reads like this: (in CC#N) 296 nm; (in CCOC(C)=O) 296 nm; (in CO) 294 nm; (in O) 294 nm. Consider `CCN(CC)c1cc2oc3cc(O)c(F)cc3c(=O)c2cc1F`, for which the absorption maximum (in CCO) stood at 379 nm.

For `O=S(=O)(c1ccc(-c2ccc3c(c2)c2ccccc2n3-c2ccccc2)cc1)c1ccc(-c2ccc3c(c2)c2ccccc2n3-c2ccccc2)cc1`, the absorption maximum (in Cc1ccccc1) was found to be 332 nm. `CCCCCCn1c2c(c3cc(-c4ccc5ccc6cccc7ccc4c5c67)ccc31)-c1c(c3cc(-c4ccc5ccc6cccc7ccc4c5c67)ccc3n1CCCCCC)-c1c(c3cc(-c4ccc5ccc6cccc7ccc4c5c67)ccc3n1CCCCCC)-c1c-2c2cc(-c3ccc4ccc5cccc6ccc3c4c56)ccc2n1CCCCCC` registered an absorption maximum (in ClCCl) of 340 nm. Same read-out and setting: in the case of `C1=Cc2ccc(N(c3ccccc3)c3cccc4ccccc34)cc2C2(c3cc(N(c4ccccc4)c4cccc5ccccc45)ccc31)c1ccccc1-c1ccccc12` it was 403 nm. As for `COc1ccc(N(c2ccc(OC)cc2)c2cc3ccc4cc(B(c5c(C)cc(C)cc5C)c5c(C)cc(C)cc5C)cc5ccc(c2)c3c45)cc1`, the absorption maximum by setting is: (in C1CCOC1) 399 nm; (in CC(C)=O) 395 nm; (in CCCCCC) 398 nm; (in Cc1ccccc1) 402 nm; (in ClC(Cl)Cl) 399 nm; (in ClCCl) 397 nm. On to `Cc1ccc(N(c2ccc(C)cc2)c2ccc(-c3ccc4c(c3)C(=O)c3ccccc3C4=O)cc2)cc1`, for which the absorption maximum worked out at 463 nm (in C1CCOC1); 457 nm (in CCCCCC); 461 nm (in CCOC(C)=O); 459 nm (in CCOCC); 470 nm (in Cc1ccccc1); 474 nm (in ClC(Cl)(Cl)Cl). For the same molecule, the absorption maximum (in ClCCl) worked out at 476 nm. For `Cc1cc(-c2ccc(N(c3ccccc3)c3ccccc3)cc2)c2nsnc2c1-c1ccc(C(C)(C)C)cc1`, the absorption maximum (in ClCCl) came to 418 nm. On to `O=C1c2ccc(N(c3ccc(-c4ccccc4)cc3)c3ccc(-c4ccccc4)cc3)cc2C(=O)c2ccc(N(c3ccc(-c4ccccc4)cc3)c3ccc(-c4ccccc4)cc3)cc21`, for which the absorption maximum (in Cc1ccccc1) came to 464 nm. For the setting “in C1COCCO1”, `COc1ccc(-c2ccc(-c3ccc(F)cc3)cc2)cc1` gave an absorption maximum of 291 nm. In turn, `O=C1CC(c2ccc(Cl)cc2)c2c(c3ccccc3c3nc4ccccc4nc23)O1` (centres undefined) registered an absorption maximum (in ClC(Cl)Cl) of 410 nm. In turn, `CCCCOc1c(-c2c(OCCCC)c3oc4cc5ccccc5cc4c3c3ccccc23)c2ccccc2c2c1oc1cc3ccccc3cc12` returned an absorption maximum (in C1CCOC1) of 366 nm. In the case of `CCN(CC)c1ccc2cc3ccc(=[N+](CC)CC)cc-3oc2c1`, the absorption maximum (in CC#N) is 525 nm, the absorption maximum (in CCO) was found to be 526 nm, the absorption maximum (in CN(C)C=O) came to 535 nm and the absorption maximum (in O) is 550 nm. On to `CC(C)(C)c1cc2ccc3c(N(c4ccc(F)cc4)c4ccc(F)cc4)cc(N(c4ccc(F)cc4)c4ccc(F)cc4)c4ccc(c1)c2c34`, for which the absorption maximum (in ClCCl) came to 414 nm. Still for that read-out and setting: in the case of `O=[N+]([O-])c1ccc(O)c(-c2nc3c(c4c2-c2ccccc2CC4)-c2ccccc2CC3)c1` it was 342 nm. For the molecule `c1ccc(-c2nc3nc4ccccc4nc3n2-c2ccccc2)cc1`, the absorption maximum (in CC#N) came out at 348 nm. For the molecule `Cc1ccc(/C=C/c2nc3ccccc3s2)cc1`, the absorption maximum came out at 345 nm (in C1CCCCC1) and 345 nm (in CO).

For the origin of these results see the Deep4Chem optical property database.
